Molecular target: T1, CCR-3 (Homo sapiens, UniProt P51677)
T1 sequence (P51677 1-355): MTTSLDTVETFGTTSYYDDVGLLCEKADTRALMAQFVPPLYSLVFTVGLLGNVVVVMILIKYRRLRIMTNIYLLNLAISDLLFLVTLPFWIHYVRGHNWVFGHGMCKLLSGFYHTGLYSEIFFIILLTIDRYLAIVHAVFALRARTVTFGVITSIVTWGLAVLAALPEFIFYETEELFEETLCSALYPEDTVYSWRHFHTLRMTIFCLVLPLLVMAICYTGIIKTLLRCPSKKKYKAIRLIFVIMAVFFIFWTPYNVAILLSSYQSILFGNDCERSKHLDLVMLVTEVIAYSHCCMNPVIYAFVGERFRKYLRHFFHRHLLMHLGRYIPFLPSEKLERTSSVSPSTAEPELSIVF
Assay: Eotaxin-induced chemotaxis of CCR-3 transfectant cells (CCR3/U937)
Format: cell-based
Parameters: expressed in transfected cells; host or cells: U937
Conditions: test compound 0.1 µg/ml; eotaxin 1 x 10^-9 M; CCR3/U937 transfectants; 37 °C, 1 hour

Row | Structure (SMILES) | Chemotaxis Assay 0.1 µg/ml (inhibition %)
1 | CC[N+](CCCNC(=O)Nc1ccc(Cl)c(Cl)c1)(CCOCCOC)CCc1ccccc1.[I-] (stereo not shown) [compound 359] | 49%
2 | CC[N+](CCCNC(=O)Nc1ccc(Cl)c(Cl)c1)(CCOCCOC)CCc1cccc(F)c1.[I-] (stereo not shown) [compound 360] | 70%
3 | C=C(C)C[N+](CC)(CCCNC(=O)Nc1ccc(Cl)c(Cl)c1)CCc1ccccc1.[I-] (stereo not shown) [compound 368] | 88%
4 | CC[N+](CCF)(CCCNC(=O)Nc1ccc(Cl)c(Cl)c1)CCc1cccc(Cl)c1.[I-] (stereo not shown) [compound 369] | 82%
5 | CC[N+](CCF)(CCCNC(=O)Nc1ccc(Cl)c(Cl)c1)CCc1ccccc1.[I-] (stereo not shown) [compound 370] | 64%
6 | CC[N+](CCF)(CCCNC(=O)Nc1ccc(Cl)c(Cl)c1)CCc1cccc(F)c1.[I-] (stereo not shown) [compound 371] | 86%
7 | CC[N+](CC#N)(CCCNC(=O)Nc1ccc(Br)cc1)CCc1cccc(Cl)c1.[I-] (stereo not shown) [compound 372] | 76%
8 | CC[N+](CCCNC(=O)Nc1ccc(Br)cc1)(CCOCCOC)CCc1cccc(Cl)c1.[I-] (stereo not shown) [compound 373] | 100%
9 | CC[N+](CCCNC(=O)Nc1ccc(Br)cc1)(CCOCCOC)CCc1ccc(Cl)cc1Cl.[I-] (stereo not shown) [compound 374] | 100%
10 | CC[N+](CCCNC(=O)Nc1ccc(Br)cc1)(CCOCCOC)CCc1cccc(F)c1.[I-] (stereo not shown) [compound 375] | 91%
11 | CC[N+](CCCNC(=O)Nc1ccc(Br)cc1)(CCc1cccc(Cl)c1)CC1CCC1.[I-] (stereo not shown) [compound 376] | 87%
12 | CC[N+](CCCNC(=O)Nc1ccc(Br)cc1)(CCc1ccc(Cl)c(Cl)c1)CC1CCC1.[I-] (stereo not shown) [compound 377] | 46%
13 | C=C(C)C[N+](CC)(CCCNC(=O)Nc1ccc(Br)cc1)CCc1cccc(Cl)c1.[I-] (stereo not shown) [compound 378] | 81%
14 | CCC(CC)C[N+](CC)(CCCNC(=O)Nc1ccc(Br)cc1)CCc1cccc(Cl)c1.[I-] (stereo not shown) [compound 379] | 80%
15 | CCC(CC)C[N+](CC)(CCCNC(=O)Nc1ccc(Br)cc1)CCc1ccc(Cl)c(Cl)c1.[I-] (stereo not shown) [compound 380] | 46%
16 | CC[N+](CCF)(CCCNC(=O)Nc1ccc(Br)cc1)CCc1ccc(Cl)cc1.[I-] (stereo not shown) [compound 381] | 68%
17 | CC[N+](CCF)(CCCNC(=O)Nc1ccc(Br)cc1)CCc1cccc(Cl)c1.[I-] (stereo not shown) [compound 382] | 98%
18 | CC[N+](CCF)(CCCNC(=O)Nc1ccc(Br)cc1)CCc1ccc(Cl)cc1Cl.[I-] (stereo not shown) [compound 383] | 43%
19 | CC[N+](CCF)(CCCNC(=O)Nc1ccc(Br)cc1)CCc1ccc(Cl)c(Cl)c1.[I-] (stereo not shown) [compound 384] | 76%
20 | CC[N+](CCF)(CCCNC(=O)Nc1ccc(Br)cc1)CCc1cccc(F)c1.[I-] (stereo not shown) [compound 385] | 68%

Row | Structure (SMILES) | Chemotaxis Assay 0.1 µg/ml (inhibition %)
21 | CC[N+](CCCNC(=O)Nc1ccc(C(F)(F)F)cc1)(CCOCCOC)CCc1ccc(Cl)cc1.[I-] (stereo not shown) [compound 386] | 43%
22 | CC[N+](CCCNC(=O)Nc1ccc(C(F)(F)F)cc1)(CCOCCOC)CCc1cccc(Cl)c1.[I-] (stereo not shown) [compound 387] | 94%
23 | CC[N+](CCCNC(=O)Nc1ccc(C(F)(F)F)cc1)(CCOCCOC)CCc1ccc(Cl)cc1Cl.[I-] (stereo not shown) [compound 388] | 56%
24 | CC[N+](CCCNC(=O)Nc1ccc(C(F)(F)F)cc1)(CCOCCOC)CCc1cccc(F)c1.[I-] (stereo not shown) [compound 389] | 65%
25 | C=C(C)C[N+](CC)(CCCNC(=O)Nc1ccc(C(F)(F)F)cc1)CCc1cccc(Cl)c1.[I-] (stereo not shown) [compound 390] | 51%
26 | CC[N+](CCF)(CCCNC(=O)Nc1ccc(C(F)(F)F)cc1)CCc1cccc(Cl)c1.[I-] (stereo not shown) [compound 391] | 47%
27 | CC[N+](CCCNC(=O)Nc1ccc(C#N)cc1)(CCOCCOC)CCc1cccc(OC)c1.[I-] (stereo not shown) [compound 392] | 45%
28 | CCC(CC)C[N+](CC)(CCCNC(=O)Nc1ccc(C#N)cc1)CCc1cccc(Cl)c1.[I-] (stereo not shown) [compound 402] | 71%
29 | CC[N+](CCF)(CCCNC(=O)Nc1ccc(C#N)cc1)CCc1cccc(Cl)c1.[I-] (stereo not shown) [compound 403] | 77%
30 | CC[N+](CCF)(CCCNC(=O)Nc1ccc(C#N)cc1)CCc1ccc(Cl)cc1Cl.[I-] (stereo not shown) [compound 404] | 47%
31 | CC[N+](CCF)(CCCNC(=O)Nc1ccc(C#N)cc1)CCc1c(Cl)cccc1Cl.[I-] (stereo not shown) [compound 405] | 57%
32 | CC[N+](CCCNC(=O)Nc1ccccc1)(CCOCCOC)CCc1cccc(OC)c1.[I-] (stereo not shown) [compound 406] | 43%
33 | CC[N+](CCCNC(=O)Nc1ccccc1)(CCc1cccc(Cl)c1)CCC(C)C.[I-] (stereo not shown) [compound 407] | 52%
34 | CC[N+](CCCNC(=O)Nc1ccccc1)(CCc1ccc(Cl)c(Cl)c1)CCC(C)C.[I-] (stereo not shown) [compound 408] | 74%
35 | CC[N+](CCCNC(=O)Nc1ccccc1)(CCc1ccc(Cl)cc1Cl)CC(N)=O.[I-] (stereo not shown) [compound 409] | 53%
36 | CC[N+](CCCNC(=O)Nc1ccccc1)(CCc1ccc(Cl)c(Cl)c1)CC(N)=O.[I-] (stereo not shown) [compound 410] | . 50%
37 | CC[N+](CC#N)(CCCNC(=O)Nc1ccccc1)CCc1cccc(Cl)c1.[I-] (stereo not shown) [compound 411] | 42%
38 | CC[N+](CCCNC(=O)Nc1ccccc1)(CCOCCOC)CCc1ccc(Cl)cc1.[I-] (stereo not shown) [compound 412] | 84%
39 | CC[N+](CCCNC(=O)Nc1ccccc1)(CCOCCOC)CCc1cccc(Cl)c1.[I-] (stereo not shown) [compound 413] | 95%
40 | CC[N+](CCCNC(=O)Nc1ccccc1)(CCOCCOC)CCc1ccc(Cl)cc1Cl.[I-] (stereo not shown) [compound 414] | 98%

Row | Structure (SMILES) | Chemotaxis Assay 0.1 µg/ml (inhibition %)
41 | CC[N+](CCCNC(=O)Nc1ccccc1)(CCOCCOC)CCc1ccc(Cl)c(Cl)c1.[I-] (stereo not shown) [compound 415] | 99%
42 | CC[N+](CCCNC(=O)Nc1ccccc1)(CCOCCOC)CCc1cccc(F)c1.[I-] (stereo not shown) [compound 416] | 69%
43 | CC[N+](CCCNC(=O)Nc1ccccc1)(CCc1ccc(Cl)cc1)CC1CCC1.[I-] (stereo not shown) [compound 417] | 59%
44 | CC[N+](CCCNC(=O)Nc1ccccc1)(CCc1ccc(Cl)cc1Cl)CC1CCC1.[I-] (stereo not shown) [compound 419] | 76%
45 | CC[N+](CCCNC(=O)Nc1ccccc1)(CCc1ccc(Cl)c(Cl)c1)CC1CCC1.[I-] (stereo not shown) [compound 420] | 99%
46 | CC[N+](CCCNC(=O)Nc1ccccc1)(CCc1cccc(F)c1)CC1CCC1.[I-] (stereo not shown) [compound 421] | 66%
47 | C=C(C)C[N+](CC)(CCCNC(=O)Nc1ccccc1)CCc1ccc(Cl)cc1.[I-] (stereo not shown) [compound 422] | 42%
48 | C=C(C)C[N+](CC)(CCCNC(=O)Nc1ccccc1)CCc1cccc(Cl)c1.[I-] (stereo not shown) [compound 423] | 92%
49 | C=C(C)C[N+](CC)(CCCNC(=O)Nc1ccccc1)CCc1ccc(Cl)cc1Cl.[I-] (stereo not shown) [compound 424] | 95%
50 | C=C(C)C[N+](CC)(CCCNC(=O)Nc1ccccc1)CCc1ccc(Cl)c(Cl)c1.[I-] (stereo not shown) [compound 425] | 93%
51 | C=C(C)C[N+](CC)(CCCNC(=O)Nc1ccccc1)CCc1ccccc1.[I-] (stereo not shown) [compound 426] | 44%
52 | CCC(CC)C[N+](CC)(CCCNC(=O)Nc1ccccc1)CCc1ccc(Cl)cc1.[I-] (stereo not shown) [compound 427] | 67%
53 | CCC(CC)C[N+](CC)(CCCNC(=O)Nc1ccccc1)CCc1cccc(Cl)c1.[I-] (stereo not shown) [compound 428] | 93%
54 | CCC(CC)C[N+](CC)(CCCNC(=O)Nc1ccccc1)CCc1ccc(Cl)cc1Cl.[I-] (stereo not shown) [compound 429] | 64%
55 | CCC(CC)C[N+](CC)(CCCNC(=O)Nc1ccccc1)CCc1ccc(Cl)c(Cl)c1.[I-] (stereo not shown) [compound 430] | 76%
56 | CCC(CC)C[N+](CC)(CCCNC(=O)Nc1ccccc1)CCc1cccc(F)c1.[I-] (stereo not shown) [compound 431] | 96%
57 | CC[N+](CCF)(CCCNC(=O)Nc1ccccc1)CCc1cccc(Cl)c1.[I-] (stereo not shown) [compound 432] | 96%
58 | CC[N+](CCF)(CCCNC(=O)Nc1ccccc1)CCc1ccc(Cl)cc1Cl.[I-] (stereo not shown) [compound 433] | 76%

— patent EP1200395B1, “UREA DERIVATIVES AS INHIBITORS OF CCR-3 RECEPTOR” (KIRIN BEER KABUSHIKI KAISHA, priority 1999, dated 2001)
